This is an account of results in US12503438B2, “Compounds for the treatment of kinase-dependent disorders” (Exelixis, Inc., priority 2019, dated 2025).

Assay [1] concerns the target T1, AXL (Homo sapiens, UniProt P30530).
T1 construct: endogenous in cells; host or cells: A-172 glioblastoma cells (ATCC #CRL-1620)
T1 sequence (P30530 26-894): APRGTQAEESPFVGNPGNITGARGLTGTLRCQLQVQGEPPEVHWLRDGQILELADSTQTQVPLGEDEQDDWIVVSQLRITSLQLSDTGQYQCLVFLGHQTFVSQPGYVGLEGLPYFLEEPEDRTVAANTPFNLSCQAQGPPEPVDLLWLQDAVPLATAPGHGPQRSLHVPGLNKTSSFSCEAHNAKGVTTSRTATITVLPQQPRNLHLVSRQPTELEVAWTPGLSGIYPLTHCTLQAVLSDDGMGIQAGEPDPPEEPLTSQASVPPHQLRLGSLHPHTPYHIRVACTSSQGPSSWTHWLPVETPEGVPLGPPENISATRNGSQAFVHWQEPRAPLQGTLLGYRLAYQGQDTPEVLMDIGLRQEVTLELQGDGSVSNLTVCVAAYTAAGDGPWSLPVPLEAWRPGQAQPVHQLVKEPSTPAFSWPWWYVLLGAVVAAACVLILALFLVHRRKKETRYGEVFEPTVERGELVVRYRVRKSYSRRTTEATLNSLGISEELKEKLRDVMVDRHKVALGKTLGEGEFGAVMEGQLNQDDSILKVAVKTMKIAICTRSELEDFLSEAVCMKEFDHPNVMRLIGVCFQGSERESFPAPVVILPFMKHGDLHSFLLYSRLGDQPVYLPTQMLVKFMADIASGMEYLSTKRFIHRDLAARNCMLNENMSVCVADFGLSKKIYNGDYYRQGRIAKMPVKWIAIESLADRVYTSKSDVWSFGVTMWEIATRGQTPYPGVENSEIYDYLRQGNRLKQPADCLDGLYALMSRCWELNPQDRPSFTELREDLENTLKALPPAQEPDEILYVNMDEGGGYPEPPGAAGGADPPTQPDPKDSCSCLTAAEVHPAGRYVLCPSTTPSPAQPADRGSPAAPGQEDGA
Kind of assay: AXL autophosphorylation ELISA in A-172 cells. The assay is classed as cell-based. To be noted: cellular activity, Gas6-stimulated, phospho-AXL ELISA. The essentials:
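Serum-starved (24 h) A-172 glioblastoma cells got an 8-point compound series (0.3% DMSO) for 1 h, then 1 μg/mL human Gas6 for 15 min. Lysate phospho-AXL quantified by ELISA against phospho-AXL standard, normalized to DMSO and reference-inhibitor controls; IC50 by 4-parameter logistic fit.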

Assay [2] deals with Met (Homo sapiens, UniProt P08581). Kind of assay: Human Met kinase assay (33P-phosphoryl transfer radiometric, KinaseProfiler). To be noted: biochemical activity; 10 μM ATP; read-out: c-Met IC50. Also noted: Human Met (residues R974-S1390 with A1209G and V1290L, 3.4 nM); purchased Eurofins Pharma Discovery Services UK Limited (KinaseProfiler service).

Where only a bound is given, the exact number is not on record here.

Sequence of Met (P08581 974-1390): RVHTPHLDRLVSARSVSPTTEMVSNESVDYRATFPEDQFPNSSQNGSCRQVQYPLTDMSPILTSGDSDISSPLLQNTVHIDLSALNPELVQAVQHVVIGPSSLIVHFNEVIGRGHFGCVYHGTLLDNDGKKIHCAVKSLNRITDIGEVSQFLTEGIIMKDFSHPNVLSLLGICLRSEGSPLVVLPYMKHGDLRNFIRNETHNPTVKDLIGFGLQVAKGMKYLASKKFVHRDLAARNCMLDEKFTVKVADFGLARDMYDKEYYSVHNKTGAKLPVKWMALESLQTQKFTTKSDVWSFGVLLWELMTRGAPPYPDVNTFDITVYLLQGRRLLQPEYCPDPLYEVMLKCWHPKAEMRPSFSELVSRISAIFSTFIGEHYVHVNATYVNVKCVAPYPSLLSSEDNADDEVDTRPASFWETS

With `Cn1ncc(-c2ccc3c(Oc4ccc(NC(=O)C5(C(=O)Nc6ccc(F)cc6)CC5)cc4)ccnc3c2)n1` [Compound 86, 1-N′-(4-Fluorophenyl)-1-N-[4-[7-(2-methyltriazol-4-yl)quinolin-4-yl]oxyphenyl]cyclopropane-1,1-dicarboxamide], the figures for the IC50 in assay [1] and in assay [2] were 10 to 100 nM and ≤ 10 nM, respectively.
